Results from patent US9630984B2, “Compound contained in manuka honey and use of same” (HEALTHCARE SYSTEMS, priority 2011, dated 2017).

Biological target: T1, human MPO (Homo sapiens, UniProt P05164)
T1 sequence (P05164 49-745): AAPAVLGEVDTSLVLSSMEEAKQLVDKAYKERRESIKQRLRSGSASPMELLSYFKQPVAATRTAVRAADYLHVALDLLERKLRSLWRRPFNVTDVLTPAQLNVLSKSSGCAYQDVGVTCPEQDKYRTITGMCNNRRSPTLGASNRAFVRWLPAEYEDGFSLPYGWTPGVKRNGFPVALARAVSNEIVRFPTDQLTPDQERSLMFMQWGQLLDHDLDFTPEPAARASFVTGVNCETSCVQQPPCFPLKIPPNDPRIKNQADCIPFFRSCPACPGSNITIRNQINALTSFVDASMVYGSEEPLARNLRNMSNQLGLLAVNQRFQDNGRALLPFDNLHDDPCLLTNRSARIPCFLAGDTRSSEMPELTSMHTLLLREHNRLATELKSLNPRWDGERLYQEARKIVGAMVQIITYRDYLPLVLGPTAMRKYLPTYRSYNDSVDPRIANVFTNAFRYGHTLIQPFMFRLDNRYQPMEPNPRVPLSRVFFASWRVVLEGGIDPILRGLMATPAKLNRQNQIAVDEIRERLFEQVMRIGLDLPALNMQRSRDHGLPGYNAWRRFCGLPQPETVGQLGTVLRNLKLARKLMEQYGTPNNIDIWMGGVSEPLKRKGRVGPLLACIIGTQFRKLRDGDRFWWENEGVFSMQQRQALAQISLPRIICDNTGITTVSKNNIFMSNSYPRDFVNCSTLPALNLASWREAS
Assay: MPO inhibition activity: inhibition of halogenation of tyrosine residues of biotin-labeled BSA (ELISA with 3A5 antibody)
Format: biochemical
Conditions: sample prepared to 5 mM, 10 μl in about 110 μl reaction; 30 minutes at 37° C.; absorbancy 450 nm/550 nm
Experimental: The MPO inhibition activities of the isolated MGGD and its aglycon MSYR were measured by evaluating inhibition of the halogenation of the tyrosine residues of a biotin-labeled protein (bovine serum albumin). It is thus possible to measure either inhibition of the MPO enzyme itself or the ability to extinguish or capture hypobromous acid (HOBr) and other active species produced by the enzyme.
The necessary solutions and the like for the reaction were prepared as follows.
(2) Xanthine oxidase (XOD) (Sigma X4500-25UN) diluted 100× with water.
(4) Biotin-BSA (Sigma-A6043-10MG) dissolved to 1 mg/ml in 0.1 M phosphate buffer with 200 μM NaBr and 200 mM NaCl added in advance, then freeze dried for storage, and diluted to 0.4 mg/ml before use.
(5) Sample prepared to 5 mM.
(6) Reduced glutathione (GSH) (Sigma G-6529) as a positive control.
(7) L-methionine, dissolved in water to 10 mM. […]
50 μl of a 10 μg/ml concentration 3A5 antibody (Nikken Seil) recognizing dihalogenated tyrosines was coated as a primary antibody on each microplate, and left standing overnight at 4° C. […] This was then left standing again for 45 minutes at 37° C. and washed, after which 100 μl of a TMB (3,3′-5,5′-tetramethylbentidine) coloring reagent (A liquid/B liquid=1/1) was added, and absorbancy was measured at 450 nm/550 nm for about 10 minutes with a microplate reader.

## COC(=O)c1cc(OC)c(O[C@@H]2O[C@H](CO[C@@H]3O[C@H](CO)[C@@H](O)[C@H](O)[C@H]3O)[C@@H](O)[C@H](O)[C@H]2O)c(OC)c1 [MGGD, methyl-4-O-[β-D-glucopyranosyl-(1→6)-β-D-glucopyranosyl]-3,5-dimethoxybenzoate]
  MPO enzyme inhibition activity (halogenated tyrosine production vs control with no added antioxidant): exhibited MPO enzyme inhibition activity
